From patent US5250527A, “Pyridyl containing benzimidazoles, compositions and use” (SmithKline & French Laboratories Limited, priority 1988, dated 1993) come the findings set out here.

In general, IC50 refers to the concentration needed to halve the response being measured. A low value points to higher potency. For orientation: % inhibition means the drop in the measured response relative to a control, in per cent. A high value points to a response far below the control. As usually defined, the ED50 is the midpoint of the dose-response relation.

In test [1] the target is T1, H^+ -K^+ -ATPase (Sus scrofa, UniProt P19156).
T1 construct: alpha-beta complex
Briefly: K+ stimulated ATPase activity. Type of test: biochemical. Conditions: at pH 6.1 and 7.4; lyophilised gastric vesicles of pig fundic mucosa. On the procedure:
The effects of a single high concentration (1 mM) of a compound of structure (I) on H^+ -K^+ ATPase were determined at pH 6.1 and pH 7.4.
Compounds of structure (I) were pre-incubated with H^+ -K^+ -ATPase preparation 30 μg protein/ml from (i) in 10 mM Pipes/Tris buffer pH 6.1 and pH 7.4.
After 30 min at 37° the preincubation was diluted 5-fold with assay buffer to start the ATPase reaction. The conditions in the assay are 100 mM Pipes/Tris, 2 mM MgCl2, 10 mM KCl, 5 μgml nigericin, 2 mM Na2 ATP, pH 7.0.
The effect of the same concentration of compound of structure (I) (preincubated with H^+ -K^+ -ATPase preparation at pH 7.4 as described above) on the recovery of 100 nmole of inorganic phosphate was also determined.
Compounds of structure (I) were initially dissolved in dimethyl sulphoxide, polyethylene glycol (Type 400) or Pipes/Tris buffer.
All data refer to the concentration of compound present in the preincubation before dilution with assay buffer.

Test [2] relates to rabbit intact gastric glands. Briefly: Aminopyrine (AP) accumulation in intact gastric glands. The format is cell-based, New Zealand white rabbits. Conditions: Oryctolagus cuniculus, 0.5 h, inhibition of aminopyrine accumulation, dibutyryl cAMP stimulated, pH 7.4, 30 min. On the procedure:
The effect of a single concentration (100 μm) of a compound of structure (I) on dibutyryl cAMP stimulated AP […] in rabbit intact gastric glands was determined. Preferred compounds of structure (I) were tested over a range of concentrations to determine the IC50 value.
Intact gastric glands were prepared from New Zealand white rabbits by the method of Berghindh et al. (Acta. Physio. Scand. 96, 150, 1976). Gastric mucosal scrapings were digested at 37° C. for 45-60 min. with Collagenase (100 U. Type 1. Sigma), and glands harvested by coarse filtration and sedimentation.
Test compound was incubated with glands and 300 μM dibutyryl CAMP for 30 minutes at […]. Incubating medium contained 132.5 mM NaCl, 5.4 Mm KCl, 1.0 mM NaH2 PO4. 5.0 mM Na2 HPO4, 1.2 mM MgSO4, 1.0 mM CaCl2, 11.1 mM glucose, 2.0 mg/ml rabbit albumin, 10 μg/ml phenol red, approximately 0.3 μM[^14 C] aminopyrine (110 mCi/mmole), pH 7.4.
After incubation, glands were centrifuged and the supernatant removed. The glands were dried, weighed and dissolved in NaOH. The distribution of radioactivity between the supernatant and glands is then used to calculate the AP ratio after the method of Berglindh et al. (Acta. Physiol. Scand. 97, 401, 1976).
The IC50 value is the amount of compound required to inhibit the […] accumulation of aminopyrine by 50%.

Test [3] deals with Histamine Stimulated Gastric Acid Secretion. As to the kind of experiment: Rat: Lumen Perfumed Stomach (Histamine Stimulated Gastric Acid Secretion). Conditions: i.v. The format is in vivo. The text has this: C. Rat: Lumen Perfumed Stomach (Histamine Stimulated Gastric Acid Secretion)
Using a modification of the procedure described by Ghosh and Schild (Br. J. Pharmacology, 13, 54, 1958), ED50 values after either intraduodenal (i.d) or intravenous (i.v) administration were obtained as follows: […]

Test [4] deals with Histamine-Stimulated Gastric Acid Secretion. As to the kind of experiment: Dog: Conscious Heidenhain Pouch (Histamine-Stimulated Gastric Acid Secretion). Type of test: in vivo. Conditions: Canis lupus familiaris, intravenous. The source says:
B. Dog: Conscious Heidenhain Pouch (Histamine-Stimulated Gastric Acid Secretion)
Using dogs surgically prepared with Heidenhain pouches 1 to 3 years previously, inhibitory ED50 values against histamine stimulated gastric acid secretion after intravenous administration were obtained.

T1 sequence (P19156 whole entry): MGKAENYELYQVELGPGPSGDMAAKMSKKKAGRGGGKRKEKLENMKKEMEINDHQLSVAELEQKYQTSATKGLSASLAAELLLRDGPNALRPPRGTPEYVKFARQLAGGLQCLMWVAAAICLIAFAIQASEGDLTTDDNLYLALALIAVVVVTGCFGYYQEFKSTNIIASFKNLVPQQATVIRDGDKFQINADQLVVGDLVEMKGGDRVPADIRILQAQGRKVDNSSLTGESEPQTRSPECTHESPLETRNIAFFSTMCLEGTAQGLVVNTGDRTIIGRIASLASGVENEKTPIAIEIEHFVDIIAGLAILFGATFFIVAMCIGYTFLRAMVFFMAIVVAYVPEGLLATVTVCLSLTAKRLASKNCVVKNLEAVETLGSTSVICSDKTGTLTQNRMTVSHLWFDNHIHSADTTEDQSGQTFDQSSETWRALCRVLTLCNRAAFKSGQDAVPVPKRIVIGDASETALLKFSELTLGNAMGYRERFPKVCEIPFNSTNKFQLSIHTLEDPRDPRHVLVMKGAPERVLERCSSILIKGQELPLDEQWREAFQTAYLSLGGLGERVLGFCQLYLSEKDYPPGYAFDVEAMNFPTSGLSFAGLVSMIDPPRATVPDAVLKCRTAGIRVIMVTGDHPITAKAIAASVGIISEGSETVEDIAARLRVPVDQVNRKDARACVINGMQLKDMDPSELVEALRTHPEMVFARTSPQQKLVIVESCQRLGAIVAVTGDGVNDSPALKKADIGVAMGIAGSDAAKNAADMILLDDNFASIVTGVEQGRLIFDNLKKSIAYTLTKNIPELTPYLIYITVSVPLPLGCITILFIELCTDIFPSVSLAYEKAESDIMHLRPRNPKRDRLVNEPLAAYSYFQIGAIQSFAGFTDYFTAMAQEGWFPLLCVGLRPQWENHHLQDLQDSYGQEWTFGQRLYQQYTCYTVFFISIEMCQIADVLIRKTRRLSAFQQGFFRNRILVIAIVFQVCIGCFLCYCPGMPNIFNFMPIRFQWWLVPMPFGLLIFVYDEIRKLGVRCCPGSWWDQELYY
T1 sequence (P18434 whole entry partner): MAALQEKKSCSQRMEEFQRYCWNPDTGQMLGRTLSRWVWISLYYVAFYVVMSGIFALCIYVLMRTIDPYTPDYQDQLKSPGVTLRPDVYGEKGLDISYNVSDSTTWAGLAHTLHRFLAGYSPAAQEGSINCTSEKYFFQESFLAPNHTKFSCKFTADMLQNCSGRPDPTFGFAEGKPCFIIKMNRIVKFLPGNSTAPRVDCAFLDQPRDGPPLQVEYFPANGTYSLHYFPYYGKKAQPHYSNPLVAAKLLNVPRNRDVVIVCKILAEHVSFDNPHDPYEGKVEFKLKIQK

For `COc1ccc2[nH]c([S+]([O-])Cc3ncc(Br)c(N4CCCCC4)c3C)nc2c1` (stereo not drawn) [Example 22, 2-(4-piperidino-5-bromo-3-methyl-2-pyridylmethylsulphinyl) -5-methoxy-(1H)-benzimidazole], in test [1], the “inhibition of potassium stimulated ATPase activity” value was “found to inhibit potassium stimulated ATPase activity”. Also, the IC50 in test [2] is 9.2 µM.
In the case of `COc1ccc2[nH]c([S+]([O-])Cc3cc(N4CCOCC4)c(F)cn3)nc2c1` (stereo not drawn) [Example 30, 2-(4-morpholino-5-fluoro-2-pyridylmethylsulphinyl)-5-methoxy-(1H)-benzimidazole], in test [3], the “% inhibition at 1 μM/kg” value came out at 51%. Further, in test [4], the ED50 came out at 5.07 µmol/kg.
With `COc1ccc2[nH]c([S+]([O-])Cc3cc(N(C)C)c(F)cn3)nc2c1` (stereo not drawn) [Example 34, 2-(4-dimethylamino-5-fluoro-2-pyridylmethylsulphinyl)-5-methoxy-(1H)-benzimidazole], the “% inhibition at 1 μM/kg” value in test [3] worked out at 37%.
For the compound `COc1ccc2[nH]c([S+]([O-])Cc3nccc(N4CCCCC4)c3Cl)nc2c1` (stereo not drawn) [Example 10, 2 -(4 -piperidino-3 -chloro-2 -pyridylmethylsulphinyl)-5 -methoxy-(1H)-benzimidazole], the “inhibition of potassium stimulated ATPase activity” value in test [1] was “found to inhibit potassium stimulated ATPase activity”. Half-maximal inhibition in test [2] (IC50) was put at 2 µM. Also, the ED50 in test [4] was determined as 1.2 µmol/kg.
As to `COc1ccc2[nH]c([S+]([O-])Cc3nccc(N4CCCCC4)c3Br)nc2c1` (stereo not drawn) [Example 20, 2-(4-piperidino-3-bromo-2-pyridylmethylsulphinyl)-5-methoxy-(1H)-benzimidazole], the “inhibition of potassium stimulated ATPase activity” value in test [1] is on record as “found to inhibit potassium stimulated ATPase activity”. Further, 1.3 µM corresponded to half-maximal inhibition in test [2] (IC50).
Turning to `COc1ccc2[nH]c([S+]([O-])Cc3ncc(C)c(N4CCOCC4)c3Cl)nc2c1` (stereo not drawn) [Example 6, 2 -(4 -morpholino-3 -chloro-5 -methyl-2 -pyridylmethylsulphinyl)-5 -methoxy-(1H)-benzimidazole], in test [1], the “inhibition of potassium stimulated ATPase activity” value is listed as “found to inhibit potassium stimulated ATPase activity”. In test [2], this compound displayed an IC50 of 16.3 µM. In test [4], this compound returned an ED50 of 2.2 µmol/kg.
In the case of `COc1ccc2[nH]c([S+]([O-])Cc3ncc(C)c(N4CCCCC4)c3Cl)nc2c1` (stereo not drawn) [Example 8, 2 -(4 -piperidino-3 -chloro-5 -methyl-2 -pyridylmethylsulphinyl)-5 -methoxy-(1H)-benzimidazole], in test [1], the “inhibition of potassium stimulated ATPase activity” value is listed as “found to inhibit potassium stimulated ATPase activity”. The IC50 in test [2] was determined as 4.2 µM.
In the case of `COc1ccc2[nH]c([S+]([O-])Cc3cc(N(C)C)c(Br)cn3)nc2c1` (stereo not drawn) [Example 25, 2-(4-dimethylamino-5-bromo-2-pyridylmethylsulphinyl)-5-methoxy-(1H)-benzimidazole], in test [1], the “inhibition of potassium stimulated ATPase activity” value is on record as “found to inhibit potassium stimulated ATPase activity”. For the same compound, in test [4], the ED50 was determined as 0.91 µmol/kg.
Regarding `COc1cc2nc([S+]([O-])Cc3nccc(N(C)C)c3F)[nH]c2cc1OC` (stereo not drawn) [Example 42, 2-(4-dimethylamino-3-fluoro-2-pyridylmethylsulphinyl)-5,6-dimethoxy-(1H)-benzimidazole], in test [3], the “% inhibition at 1 μM/kg” value came out at 46%.
With `COc1cc2[nH]c([S+]([O-])Cc3nccc(N4CCOCC4)c3F)nc2cc1C` (stereo not drawn) [Example 40, 2-(4-morpholino-3-fluoro-2-pyridylmethylsulphinyl)-5-methyl-6-methoxy-(1H)-benzimidazole], in test [4], it took a dose of 2.14 µmol/kg to reach the 50% effect level (ED50).
For `COc1ccc2[nH]c([S+]([O-])Cc3ncc(C)c(N(C)C)c3Cl)nc2c1` (stereo not drawn) [Example 16, 2 -(4 -dimethylamino-3 -chloro-5 -methyl-2 -pyridylmethylsulphinyl)-5 -methoxy-(1H)-benzimidazole], the “inhibition of potassium stimulated ATPase activity” value in test [1] is recorded as “found to inhibit potassium stimulated ATPase activity”. Moreover, the midpoint of inhibition in test [2], the IC50, lay at 3.7 µM. In test [4], this compound had an ED50 of 0.29 µmol/kg.
Turning to `COc1ccc2[nH]c([S+]([O-])Cc3cc(N4CCCC4)c(Br)cn3)nc2c1` (stereo not drawn) [Example 26, 2-(4-pyrrolidino-5-bromo-2-pyridylmethylsulphinyl)-5-methoxy-(1H)-benzimidazole], the “inhibition of potassium stimulated ATPase activity” value in test [1] is listed as “found to inhibit potassium stimulated ATPase activity”.
For `COc1ccc2[nH]c([S+]([O-])Cc3cc(N4CCCCC4)c(Br)cn3)nc2c1` (stereo not drawn) [Example 18, 2-(4-piperidino-5-bromo-2-pyridylmethylsulphinyl)-5-methoxy-(1H)-benzimidazole], the “inhibition of potassium stimulated ATPase activity” value in test [1] was “found to inhibit potassium stimulated ATPase activity”. In test [2], it took 1.6 µM to reach half-maximal inhibition (IC50).
On to `COc1ccc2[nH]c([S+]([O-])Cc3cc(N)c(Br)cn3)nc2c1` (stereo not drawn) [Example 2, 2 -(4 -amino-5 -bromo-2 -pyridylmethylsulphinyl)-5 -methoxy-(1H)-benzimidazole], for which the “inhibition of potassium stimulated ATPase activity” value in test [1] is “found to inhibit potassium stimulated ATPase activity”. The same compound had an IC50 in test [2] of 6.6 µM. Besides, the ED50 in test [4] was found to be 2.94 µmol/kg.
As for `COc1ccc2[nH]c([S+]([O-])Cc3nccc(N4CCOCC4)c3Cl)nc2c1` (stereo not drawn) [Example 4, 2 -(4 -morpholino-3 -chloro-2 -pyridylmethylsulphinyl)-5 -methoxy-(1H)-benzimidazole], the “inhibition of potassium stimulated ATPase activity” value in test [1] is recorded as “found to inhibit potassium stimulated ATPase activity”. In test [2], this compound came in with an IC50 of 11 µM. The ED50 in test [4] was determined as 1 µmol/kg.
In the case of `COc1cc2nc([S+]([O-])Cc3nccc(N4CCOCC4)c3F)[nH]c2cc1OC` (stereo not drawn) [Example 38, 2-(4-morpholino-3-fluoro-2-pyridylmethylsulphinyl)-5,6-dimethoxy-(1H)-benzimidazole], the “% inhibition at 1 μM/kg” value in test [3] stood at 33%.
In turn, `COc1ccc2[nH]c([S+]([O-])Cc3nccc(N4CCOCC4)c3F)nc2c1` (stereo not drawn) [Example 28, 2-(4-morpholino-3-fluoro-2-pyridylmethylsulphinyl)-5-methoxy-(1H)-benzimidazole] displayed an ED50 in test [4] of 2.75 µmol/kg.
On to `Cc1cnc(C[S+]([O-])c2nc3cc(OC(F)(F)C(F)F)ccc3[nH]2)c(Cl)c1N1CCCCC1` (stereo not drawn) [Example 23, 2-(4-piperidino-3-chloro-5-methyl-2-pyridylmethylsulphinyl)-5-(1,1,2,2-tetrafluoroethoxy)-(1H)-benzimidazole], for which the “inhibition of potassium stimulated ATPase activity” value in test [1] is on record as “found to inhibit potassium stimulated ATPase activity”. In addition, the IC50 in test [2] is 1.9 µM.
Turning to “2-(4-piperidino-3-chloro-5-methyl-2-pyridylmethylsulphinyl)-4, 5-difluoromethylenedioxy-(1H)-benzimidazole [Example 24]”, the “inhibition of potassium stimulated ATPase activity” value in test [1] is on record as “found to inhibit potassium stimulated ATPase activity”.
For `COc1ccc2[nH]c([S+]([O-])Cc3nccc(N4CCCC4)c3Cl)nc2c1` (stereo not drawn) [Example 12, 2 -(4 -pyrrolidino-3 -chloro-2 -pyridylmethylsulphinyl)-5 -methoxy-(1H)-benzimidazole], the “inhibition of potassium stimulated ATPase activity” value in test [1] was “found to inhibit potassium stimulated ATPase activity”. The compound further returned an IC50 in test [2] of 1 to 10 µM.
The matching figures for `COc1ccc2[nH]c([S+]([O-])Cc3ncc(C)c(N4CCCC4)c3Cl)nc2c1` (stereo not drawn) [Example 14, 2 -(4 -pyrrolidino-3 -chloro-5 -methyl-2 -pyridylmethylsulphinyl)-5 -methoxy-(1H)-benzimidazole]: “found to inhibit potassium stimulated ATPase activity” and 2.6 µM.
On to `COc1ccc2[nH]c([S+]([O-])Cc3ncc(F)c(N4CCOCC4)c3C)nc2c1` (stereo not drawn) [Example 36, 2-(4-morpholino-5-fluoro-3-methyl-2-pyridylmethylsulphinyl)-5-methoxy-(1H)-benzimidazole], for which the ED50 in test [4] is 2.05 µmol/kg.
As for `COc1ccc2[nH]c([S+]([O-])Cc3nccc(N(C)C)c3F)nc2c1` (stereo not drawn) [Example 32, 2-(4-dimethylamino-3-fluoro-2-pyridylmethylsulphinyl)-5-methoxy-(1H)-benzimidazole], the “% inhibition at 1 μM/kg” value in test [3] turned out to be 26%.
